# The supplement of paper PMC10307832
# How the values were obtained:
# Assay in all cases: relative viability (nuclei count vs DMSO), 5 days (fraction); higher = more cells survive
# 201T = test system: 201T
# How it was run: (§1)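 Medians of duplicate plates are given as relative viability. That measure is the nuclei count in treated wells divided by the count in vehicle wells. Counts were taken on 4× images of lung cancer cell lines in 1536-well plates, 5 days after pin-tool dosing the day after seeding with one drug alone or a fixed anchor-drug dose plus five library-drug doses (not always all listed) in √10 steps.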
# COR-L 105 = test system: COR-L 105
# How it was run: as §1
# COR-L23 = test system: COR-L23
# How it was run: as §1
# EMC-BAC-2 = test system: EMC-BAC-2
# How it was run: as §1
# HCC-15 = test system: HCC-15
# How it was run: as §1
# HCC-366 = test system: HCC-366
# How it was run: as §1
# LC-2-ad = test system: LC-2-ad
# How it was run: as §1
# NCI-H1395 = test system: NCI-H1395
# How it was run: as §1
# NCI-H1437 = test system: NCI-H1437
# How it was run: as §1
# NCI-H1755 = test system: NCI-H1755
# How it was run: as §1
# NCI-H1793 = test system: NCI-H1793
# How it was run: as §1
# NCI-H1915 = test system: NCI-H1915
# How it was run: as §1
# NCI-H2009 = test system: NCI-H2009
# How it was run: as §1
# NCI-H2023 = test system: NCI-H2023
# How it was run: as §1
# NCI-H2342 = test system: NCI-H2342
# How it was run: as §1
# NCI-H2347 = test system: NCI-H2347
# How it was run: as §1
# NCI-H23 = test system: NCI-H23
# How it was run: as §1
# NCI-H358 = test system: NCI-H358
# How it was run: as §1
# NCI-H650 = test system: NCI-H650
# How it was run: as §1
# PC-14 = test system: PC-14
# How it was run: as §1
# SK-MES-1 = test system: SK-MES-1
# How it was run: as §1
smiles,measurement,setting,value
Cc1cn(-c2cc(NC(=O)c3ccc(C)c(Nc4nccc(-c5cccnc5)n4)c3)cc(C(F)(F)F)c2)cn1 [Nilotinib] + Cc1cc(Nc2cc(N3CCN(C)CC3)nc(Sc3ccc(NC(=O)C4CC4)cc3)n2)n[nH]1 [Tozasertib] (partner 0.1 µM),relative viability,201T; first compound 0.003162 µM,1.18
same,relative viability,201T; first compound 0.01 µM,0.976
same,relative viability,201T; first compound 0.03162 µM,0.691
same,relative viability,201T; first compound 0.1 µM,0.634
same,relative viability,COR-L 105; first compound 0.001 µM,0.361
same,relative viability,COR-L 105; first compound 0.003162 µM,0.329
same,relative viability,COR-L 105; first compound 0.01 µM,0.497
same,relative viability,COR-L 105; first compound 0.03162 µM,0.329
same,relative viability,COR-L 105; first compound 0.1 µM,0.317
same,relative viability,COR-L23; first compound 0.001 µM,0.143
same,relative viability,COR-L23; first compound 0.003162 µM,0.132
same,relative viability,COR-L23; first compound 0.01 µM,0.134
same,relative viability,COR-L23; first compound 0.03162 µM,0.158
same,relative viability,COR-L23; first compound 0.1 µM,0.126
same,relative viability,EMC-BAC-2; first compound 0.001 µM,0.259
same,relative viability,EMC-BAC-2; first compound 0.003162 µM,0.258
same,relative viability,EMC-BAC-2; first compound 0.01 µM,0.244
same,relative viability,EMC-BAC-2; first compound 0.03162 µM,0.269
same,relative viability,HCC-15; first compound 0.001 µM,0.236
same,relative viability,HCC-15; first compound 0.003162 µM,0.312
same,relative viability,HCC-15; first compound 0.01 µM,0.217
same,relative viability,HCC-15; first compound 0.03162 µM,0.165
same,relative viability,HCC-15; first compound 0.1 µM,0.136
same,relative viability,HCC-366; first compound 0.001 µM,0.0811
same,relative viability,HCC-366; first compound 0.003162 µM,0.057
same,relative viability,HCC-366; first compound 0.01 µM,0.0646
same,relative viability,HCC-366; first compound 0.03162 µM,0.072
same,relative viability,HCC-366; first compound 0.1 µM,0.05
same,relative viability,LC-2-ad; first compound 0.001 µM,0.371
same,relative viability,LC-2-ad; first compound 0.003162 µM,0.337
same,relative viability,LC-2-ad; first compound 0.01 µM,0.382
same,relative viability,LC-2-ad; first compound 0.03162 µM,0.384
same,relative viability,LC-2-ad; first compound 0.1 µM,0.403
same,relative viability,NCI-H1395; first compound 0.001 µM,0.691
same,relative viability,NCI-H1395; first compound 0.003162 µM,0.674
same,relative viability,NCI-H1395; first compound 0.01 µM,0.751
same,relative viability,NCI-H1395; first compound 0.03162 µM,0.612
same,relative viability,NCI-H1395; first compound 0.1 µM,0.736
same,relative viability,NCI-H1437; first compound 0.001 µM,0.355
same,relative viability,NCI-H1437; first compound 0.003162 µM,0.499
same,relative viability,NCI-H1437; first compound 0.01 µM,0.4
same,relative viability,NCI-H1437; first compound 0.03162 µM,0.304
same,relative viability,NCI-H1437; first compound 0.1 µM,0.317
same,relative viability,NCI-H1755; first compound 0.001 µM,0.537
same,relative viability,NCI-H1755; first compound 0.003162 µM,0.548
same,relative viability,NCI-H1755; first compound 0.01 µM,0.483
same,relative viability,NCI-H1755; first compound 0.03162 µM,0.578
same,relative viability,NCI-H1755; first compound 0.1 µM,0.415
same,relative viability,NCI-H1793; first compound 0.001 µM,0.248
same,relative viability,NCI-H1793; first compound 0.003162 µM,0.298
same,relative viability,NCI-H1793; first compound 0.01 µM,0.3
same,relative viability,NCI-H1793; first compound 0.03162 µM,0.306
same,relative viability,NCI-H1793; first compound 0.1 µM,0.296
same,relative viability,NCI-H1915; first compound 0.001 µM,0.366
same,relative viability,NCI-H1915; first compound 0.003162 µM,0.484
same,relative viability,NCI-H1915; first compound 0.01 µM,0.457
same,relative viability,NCI-H1915; first compound 0.03162 µM,0.32
same,relative viability,NCI-H1915; first compound 0.1 µM,0.311
same,relative viability,NCI-H2009; first compound 0.001 µM,0.622
same,relative viability,NCI-H2009; first compound 0.003162 µM,0.853
same,relative viability,NCI-H2009; first compound 0.01 µM,0.577
same,relative viability,NCI-H2009; first compound 0.03162 µM,0.372
same,relative viability,NCI-H2009; first compound 0.1 µM,0.383
same,relative viability,NCI-H2023; first compound 0.001 µM,0.192
same,relative viability,NCI-H2023; first compound 0.003162 µM,0.225
same,relative viability,NCI-H2023; first compound 0.01 µM,0.224
same,relative viability,NCI-H2023; first compound 0.03162 µM,0.159
same,relative viability,NCI-H2023; first compound 0.1 µM,0.183
same,relative viability,NCI-H2342; first compound 0.001 µM,0.501
same,relative viability,NCI-H2342; first compound 0.003162 µM,0.561
same,relative viability,NCI-H2342; first compound 0.01 µM,0.45
same,relative viability,NCI-H2342; first compound 0.03162 µM,0.494
same,relative viability,NCI-H2342; first compound 0.1 µM,0.603
same,relative viability,NCI-H2347; first compound 0.001 µM,0.451
same,relative viability,NCI-H2347; first compound 0.003162 µM,0.463
same,relative viability,NCI-H2347; first compound 0.01 µM,0.489
same,relative viability,NCI-H2347; first compound 0.03162 µM,0.476
same,relative viability,NCI-H2347; first compound 0.1 µM,0.3
same,relative viability,NCI-H23; first compound 0.001 µM,0.303
same,relative viability,NCI-H23; first compound 0.003162 µM,0.329
same,relative viability,NCI-H23; first compound 0.01 µM,0.283
same,relative viability,NCI-H23; first compound 0.03162 µM,0.247
same,relative viability,NCI-H23; first compound 0.1 µM,0.226
same,relative viability,NCI-H358; first compound 0.001 µM,0.0908
same,relative viability,NCI-H358; first compound 0.003162 µM,0.0985
same,relative viability,NCI-H358; first compound 0.01 µM,0.0881
same,relative viability,NCI-H358; first compound 0.03162 µM,0.101
same,relative viability,NCI-H358; first compound 0.1 µM,0.116
same,relative viability,NCI-H650; first compound 0.001 µM,0.665
same,relative viability,NCI-H650; first compound 0.003162 µM,0.67
same,relative viability,NCI-H650; first compound 0.01 µM,0.725
same,relative viability,NCI-H650; first compound 0.03162 µM,0.672
same,relative viability,NCI-H650; first compound 0.1 µM,0.68
same,relative viability,PC-14; first compound 0.001 µM,0.682
same,relative viability,PC-14; first compound 0.003162 µM,0.485
same,relative viability,PC-14; first compound 0.01 µM,0.53
same,relative viability,PC-14; first compound 0.03162 µM,0.519
same,relative viability,PC-14; first compound 0.1 µM,0.615
same,relative viability,SK-MES-1; first compound 0.001 µM,0.804
same,relative viability,SK-MES-1; first compound 0.003162 µM,0.939
same,relative viability,SK-MES-1; first compound 0.01 µM,1.05
same,relative viability,SK-MES-1; first compound 0.03162 µM,0.572
same,relative viability,SK-MES-1; first compound 0.1 µM,0.524
